Measurements as given in patent US20260008783A1, “MODULATORS OF FSHR AND USES THEREOF” (Celmatix Inc., priority 2022, published 2026).

Target: T1, Follicle Stimulating Hormone Receptor (FSHR) (Homo sapiens, UniProt P23945)
T1 construct: HA (N); expressed in transfected cells; host or cells: CHO-K1, transient transfection, pHM6 vector (CMV promoter)
T1 sequence (P23945 18-695): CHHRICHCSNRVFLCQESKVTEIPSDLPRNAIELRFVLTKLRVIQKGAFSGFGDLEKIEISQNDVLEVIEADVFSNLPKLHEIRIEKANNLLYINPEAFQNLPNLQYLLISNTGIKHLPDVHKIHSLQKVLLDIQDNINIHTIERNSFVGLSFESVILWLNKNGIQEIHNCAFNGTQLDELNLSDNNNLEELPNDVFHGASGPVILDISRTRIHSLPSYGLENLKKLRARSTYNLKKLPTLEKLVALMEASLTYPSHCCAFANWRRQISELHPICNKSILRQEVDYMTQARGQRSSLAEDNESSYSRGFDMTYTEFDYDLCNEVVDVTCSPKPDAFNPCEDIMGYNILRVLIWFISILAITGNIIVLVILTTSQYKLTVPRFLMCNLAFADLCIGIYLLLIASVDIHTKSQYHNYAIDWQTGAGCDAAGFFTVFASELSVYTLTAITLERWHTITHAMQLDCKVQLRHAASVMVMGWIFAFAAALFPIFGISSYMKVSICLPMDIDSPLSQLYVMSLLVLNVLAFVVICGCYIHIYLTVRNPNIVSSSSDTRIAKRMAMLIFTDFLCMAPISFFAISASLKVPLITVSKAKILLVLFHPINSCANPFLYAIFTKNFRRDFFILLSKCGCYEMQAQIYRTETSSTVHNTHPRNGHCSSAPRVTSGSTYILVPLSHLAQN
Experiment: HTRF cAMP agonist assay, FSHR, transiently transfected CHO-K1 cells
Assay type: cell-based
Settings: CHO-K1 cells transiently expressing human FSHR, read-out: IC50 FSHR LANCE CAMP

IC50 [nM] | Compound
14.8 | COc1cc2c(cc1-c1cncc(C(N)=O)c1)-c1c(c(C(=O)N3[C@H](C)CN(C)C[C@@H]3C)nn1-c1cc(Cl)cc(Cl)c1)CC2 [Compound 12-01]
122 | COc1cc2c(cc1-c1cncc(C(N)=O)c1)-c1c(c(C(=O)N3CCN(C4CC4)CC3(C)C)nn1-c1cc(Cl)cc(Cl)c1)CC2 [Compound 8-62]
33.2 | COc1cc2c(cc1-c1cncc(C(N)=O)c1)-c1c(c(C(=O)N3C4CCC3CN(C)C4)nn1-c1cc(Cl)cc(Cl)c1)CC2 [Compound 8-15]
830 | CCn1nc(C(=O)N2CCOCC2(C)C)c2c1-c1cc(-c3cncc(C(N)=O)c3)c(OC)cc1CC2 [Compound 9-11]
16.2 | COc1cc2c(cc1OC(C)C)-c1c(c(C(=O)N3CCOCC3(C)C)nn1-c1cc(Cl)cc(Cl)c1)CC2 [Compound 9-08]
5.09 | COc1cc2c(cc1-c1cncc(C(N)=O)c1)-c1c(c(C(=O)N3COCC3(C)C)nn1-c1cc(Cl)cc(Cl)c1)OC2 [Compound 12-04]
82.2 | COc1cc2c(cc1-c1cncc(C(N)=O)c1)-c1c(c(C(=O)N3CCN(C)C(=O)C3(C)C)nn1-c1cc(Cl)cc(Cl)c1)CC2 [Compound 8-69]
6740 | CC1(C)C(=O)NCCN1C(=O)c1nn(-c2ccccn2)c2c1CCc1ccc(-c3cccnc3)cc1-2 [Compound 13-01, 3,3-dimethyl-4-[1-(2-pyridyl)-8-(3-pyridyl)-4,5-dihydrobenzo[g]indazole-3-carbonyl]piperazin-2-one]
4.98 | COc1cc2c(cc1-c1cncc(C(N)=O)c1)-c1c(c(C(=O)N3[C@H](C)CNC[C@@H]3C)nn1-c1cc(Cl)cc(Cl)c1)SC2 [Compound 12-13]
38.9 | CCN1CCN(C(=O)c2nn(-c3cc(Cl)cc(Cl)c3)c3c2CCc2cc(OC)c(-c4cncc(C(N)=O)c4)cc2-3)C(C)(C)C1 [Compound 8-60]
165 | COc1cc2c(cc1-c1cncc(C(N)=O)c1)-c1c(c(C(=O)N3CCOCC3(C)C)nn1-c1cncnc1)CC2 [Compound 10-09]
177 | COc1cc2c(cc1-c1cncc(C(N)=O)c1)-c1c(c(C(=O)N(C)C3CCS(=O)(=O)C3)nn1-c1cc(Cl)cc(Cl)c1)CC2 (centres unmarked) [Compound 8-46]
8.14 | COc1cc2c(cc1-c1cncc(C(N)=O)c1)-c1c(c(C(=O)N3[C@@H](C)CNC(=O)[C@@H]3C)nn1-c1cc(Cl)cc(Cl)c1)CC2 [Compound 8-87]
400 | COc1cc2c(cc1-c1cncc(C(N)=O)c1)-c1c(c(C(=O)N3CCOCC3(C)C)nn1-c1ncccn1)CC2 [Compound 10-08]
190 | COc1cc2c(cc1-c1cncc(C(N)=O)c1)-c1c(c(C(=O)N3CCOCC3(C)C)nn1-c1ccncc1)CC2 [Compound 10-03]
524 | COc1cc2c(cc1-c1cncc(C(N)=O)c1)-c1c(c(C(=O)N3CC4CCC3CN4)nn1-c1cc(Cl)cc(Cl)c1)CC2 (centres unmarked) [Compound 8-24]

Second part, the molecule before the results:

Compound | IC50 [nM]
COC(=O)c1cc(OC)nc(-c2cc3c(cc2OC)CCc2c(C(=O)N(C)C(C)(C)C)nn(-c4cc(Cl)cc(Cl)c4)c2-3)c1 [Compound 11-01A, methyl2-[3-[tert-butyl(methyl)carbamoyl]-1-(3,5-dichlorophenyl)-7-methoxy-4,5-dihydrobenzo[g]indazol-8-yl]-6-methoxy-pyridine-4-carboxylate] | 50.1
COc1cc2c(cc1-c1cncc(C(N)=O)c1)-c1c(c(C(=O)N(C)C(C)(C)C)nn1-c1cc(Cl)cc(Cl)c1)SC2 [Compound 3-02, N-tert-butyl-8-(5-carbamoyl-3-pyridyl)-1-(3,5-dichlorophenyl)-7-methoxy-N-methyl-5H-isothiochromeno[4,3-c]pyrazole-3-carboxamide] | 3.92
COc1cc2oc3c(C(=O)N4CCOCC4(C)C)nn(-c4ccsc4)c3c2cc1-c1cncc(C#N)c1 [Compound 4-03, 5-[3-(3,3-dimethylmorpholine-4-carbonyl)-6-methoxy-1-(3-thienyl)benzofuro[3,2-c]pyrazol-7-yl]pyridine-3-carbonitrile] | 579
COc1cc2c(cc1-c1cncc(C(N)=O)c1)-c1c(c(C(=O)N(C)C(C)(C)C)nn1-c1ccsc1)OC2 [Compound 2-04] | 7.92
COc1cc2oc3c(C(=O)N(C)C(C)(C)C)n(-c4ccsc4)nc3c2cc1-c1cncc(C(N)=O)c1 [Compound 4-04A] | 1360
COc1cc2ccc3c(C(=O)N(C)C(C)(C)C)nn(-c4cc(Cl)cc(Cl)c4)c3c2cc1-c1cncc(C(N)=O)c1 [Compound 6-06, N-tert-butyl-8-(5-carbamoyl-3-pyridyl)-1-(3,5-dichlorophenyl)-7-methoxy-N-methyl-benzo[g]indazole-3-carboxamide] | 13.6
COc1cc2c(cc1Br)-c1c(c(C(=O)N3CCOCC3(C)C)nn1-c1cc(Cl)cc(Cl)c1)CC2 [Compound 6-01A, [8-bromo-1-(3,5-dichlorophenyl)-7-methoxy-4,5-dihydrobenzo[g]indazol-3-yl]-(3,3-dimethylmorpholin-4-yl)methanone] | 1090
